The values below come from publication PMC10620772, “Design, synthesis, and biological evaluation of new pyrimidine-5-carbonitrile derivatives as novel anti-cancer, dual EGFR^WT/COX-2 inhibitors with docking studies” (RSC Advances, 2023).

Several values for one entry are separate records, joined by “and”; a condition that tells them apart may be missing. Equal entries are not always repeated.

For test [1], the system named is active caspase-3 in Colo 205 cells. Kind of test: Caspase-3 ELISA. In kind it is cell-based, human. The note with it: for Caspase 3: Colo_205, treated at IC50. The text has this: Among the death proteases, the caspases family of cysteine-dependent aspartate-directed proteases is significant. There are multiple levels where caspase activation and activity are regulated.[43] Caspases are activated during apoptosis, which eventually results in cell death by deactivating a number of signals.[44] One of the crucial survival signals, EGFR, may be the target of caspase activation to ensure the completion of apoptosis.[45] Additionally, it has been reported that activating caspase-3 through COX-2 inhibition enhances apoptosis.[40] Therefore, the impact of the novel compounds on the level of caspase 3 was examined.
(1) Into the antibody coated wells add 100 μl of standard diluent buffer excepts wells wich detected to be the chromogen blank, then add 100 μl. […] (10) Decant liquid from wells then wash, (11) pipette 100 μl of chromogen substrate to all wells, The well fluid will start to become blue. (12) 30 minutes should be spent incubating at room temperature in the dark. (13) To each well, add 100 μl of stop solution. To mix, lightly tap the plate's edge. The well solution should transform from blue to yellow. (14) Read the absorbance of each well using a microtiter plate reader at 450 nm. (15) Draw the standard curve using a curve fitting program. (16) The standard curve can be used to determine the concentrations for unknown samples and controls.[55]
(In general: ELISA stands for enzyme-linked immunosorbent assay.)

The target in the next test is T1, COX-2 (Homo sapiens, UniProt P35354).
T1 construct: purchased Biovision K547
T1 sequence (P35354 18-604): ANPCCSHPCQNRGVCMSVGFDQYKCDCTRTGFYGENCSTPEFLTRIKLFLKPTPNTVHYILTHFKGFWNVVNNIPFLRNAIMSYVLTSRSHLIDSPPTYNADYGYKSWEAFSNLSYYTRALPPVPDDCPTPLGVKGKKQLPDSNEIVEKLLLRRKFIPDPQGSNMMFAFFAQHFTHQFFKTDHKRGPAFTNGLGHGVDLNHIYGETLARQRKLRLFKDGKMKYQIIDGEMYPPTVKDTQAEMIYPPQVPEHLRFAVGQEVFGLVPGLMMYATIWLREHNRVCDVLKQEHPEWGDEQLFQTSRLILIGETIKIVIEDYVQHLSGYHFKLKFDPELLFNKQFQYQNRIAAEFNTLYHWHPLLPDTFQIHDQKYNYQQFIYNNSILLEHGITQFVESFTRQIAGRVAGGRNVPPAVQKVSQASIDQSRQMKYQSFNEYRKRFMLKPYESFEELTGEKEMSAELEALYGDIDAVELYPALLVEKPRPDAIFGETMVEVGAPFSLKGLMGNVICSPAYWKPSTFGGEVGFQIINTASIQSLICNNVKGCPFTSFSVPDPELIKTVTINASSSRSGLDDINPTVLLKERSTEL
In words: COX-2 inhibitor screening kit (Biovision). In kind it is biochemical. The conditions noted are these: for IC50: means ± SD of three experiments, read-out: COX2 IC50. The protocol: The inhibitory activity of novel 4e & 4f against COX-1/COX-2 was evaluated by using Biovision COX-1/COX-2 Inhibitor Screening Kit (Catalog #: K548) and (Catalog #: K547), respectively.

As usually defined, the IC50 is the concentration needed to halve the response being measured. Consider `N#Cc1c(-c2ccc(F)cc2)nc(SCc2ccc(F)cc2)nc1N1CCNCC1` [4f, 2-((4-Fluorobenzyl)thio)-4-(4-fluorophenyl)-6-(piperazin-1-yl) pyrimidine-5-carbonitrile], for which the “Caspase 3 fold vs control” value in test [1] (Colo 205, treated at IC50) was 8 fold and 7.88 fold. Moreover, in test [1], the “Caspase 3” value turned out to be 656.4 ± 13.1 pg·mL. At COX-2, the “SI (COX-2 over COX-1)” value is recorded as 6.01 and the IC50 came out at 5.26 µM.

As to `N#Cc1c(-c2ccc(F)cc2)nc(SCc2ccccc2)nc1N1CCNCC1` [4e, 2-(Benzylthio)-4-(4-fluorophenyl)-6-(piperazin-1-yl) pyrimidine-5-carbonitrile], the “Caspase 3” value in test [1] stood at 808.9 ± 11.9 pg·mL. At COX-2, the “SI (COX-2 over COX-1)” value was 8.55 and the half-inhibitory concentration (IC50) was 1.28 µM.
